From article PMC6768889 (Cancer Chemotherapy and Pharmacology, 2019)
Several values for one entry are separate records, joined by “and”; a condition that tells them apart may be missing. Identical values can stand only once. Counter-ions that a name gives are not always drawn. Like-named read-outs stand apart in the source and are kept apart here. Each block holds one compound with its values, some of them ahead of it.

Legend:
[1] = Phase 1 drug–drug interaction study: plasma PK of quizartinib, AC886 and quizartinib + AC886 after a single 30-mg quizartinib tablet alone or with lansoprazole; assay type: in vivo, human; settings: for Vd/F: read-out: Vz/F (CV%), geometric mean; for CL/F (CV%), geometric mean: quizartinib
Method: The tolerability and safety of quizartinib administered alone and in combination with lansoprazole were also assessed. The study was conducted in compliance with the Declaration of Helsinki and the International Conference on Harmonisation (ICH)/Good Clinical Practice as well as all applicable state, local, and federal regulations. The study protocol, amendments, and informed consent forms were reviewed and approved by the institutional review board. All subjects provided written informed consent before any study-related procedure took place.
Subjects were randomized into two groups: lansoprazole and quizartinib (lansoprazole + quizartinib; test group) and quizartinib alone (reference group). On days 1–5, subjects in the test group were administered 60-mg lansoprazole (2 × 30 mg oral delayed-released capsule) once daily in the morning before food. […] All study drugs were taken with approximately 240 mL of water.
Plasma concentrations were determined by BASi (West Lafayette, IN, USA) using a validated analytical method.
Samples were injected into an LC–MS/MS system (LC: Nexera System, Shimadzu Scientific Instruments, Columbia, MD, USA; MS: API 5500™, SCIEX, Framingham, MA, USA) using a PFP column (Phenomenex/Kinetex, Torrance, CA, USA) with a gradient ammonium formate/formic acid/acetonitrile/water mobile phase. […] For AC886 at the LLOQ, precision was 6.0% CV and accuracy was 0.2% bias across 14 runs; accuracy ranged from −7.9 to 10.6% bias within runs. For AC886 at the upper limit of quantitation, precision was 2.9% CV and accuracy was −1.4% bias across 14 runs; accuracy ranged from −6.4 to 4.6% bias within runs.
A sample size of 25 subjects per group was determined to yield a ≤ 10% relative standard error of the mean, based on the observed intersubject coefficient of variation (CV%) of approximately 60% for PK parameters in a previous drug–drug interaction study in healthy volunteers (data on file, Daiichi Sankyo, Inc., Basking Ridge, NJ, USA). Up to 32 subjects/group were planned to account for possible premature withdrawal. Descriptive statistics were used to summarize plasma concentrations and PK parameters of the PK analysis population. Safety parameters were summarized in the safety analysis population using descriptive statistics. All descriptive statistics were calculated using SAS® software version 9.3 (SAS Institute Inc., Cary, NC, USA). […] PK parameters were natural logarithm (ln)-transformed prior to analyses. The ln-transformed PK results were back-transformed by exponentiation to obtain the geometric least squares mean (LSM) for each treatment and calculate geometric LSM ratios for pairwise comparisons.

[2] = by treatment group
[3] = Safety: treatment-emergent adverse events, vital signs and laboratory tests in the phase 1 study; assay type: in vivo, human
Method: The safety analysis population consisted of all randomized subjects who received quizartinib or at least one dose of lansoprazole. Safety was assessed with physical examinations, vital signs, AE evaluations, 12-lead electrocardiograms (ECGs), and clinical laboratory tests (hematology, chemistry, and urinalysis). AEs were evaluated during the study according to the Medical Dictionary for Regulatory Activities version 17.1 and assessed for severity and relation to study drugs. Laboratory results were summarized based on National Cancer Institute Common Terminology Criteria for Adverse Events version 4.03.

[4] = cited from earlier work
[5] = In vitro solubility assessment; assay type: physicochemical
[6] = test system: gastric acid secretion; set-up: method as in earlier work; settings: cited from earlier work
[7] = healthy subjects, single 30-mg quizartinib
[8] = quizartinib in plasma, single 30-mg quizartinib alone, n = 30
[9] = day 5, up to 8 h after quizartinib
[10] = all patients, quizartinib with/without lansoprazole, N = 63
[11] = all subjects, quizartinib with or without lansoprazole
[12] = by treatment group, safety population

Decrease in AUCinf (geometric LSM) for lansoprazole + quizartinib versus quizartinib alone [1, 7]: 4.7%
Decrease in AUClast (geometric LSM) for lansoprazole + quizartinib versus quizartinib alone [1, 7]: 6.0%
Decrease in Cmax (geometric LSM) for lansoprazole + quizartinib versus quizartinib alone [1, 7]: 13.9%
AUC(0-inf) ([1]; human, plasma, oral, 30 mg, quizartinib in plasma, quizartinib alone, n = 30, read-out: AUCinf, geometric LS mean (ANOVA)): 8660 ng·h/mL
AUC(0-t) ([1]; human, plasma, oral, 30 mg, quizartinib in plasma, quizartinib alone, n = 30, read-out: AUClast, geometric LS mean (ANOVA)): 8330 ng·h/mL
AUC(0-inf) ([1]; human, plasma, oral, 30 mg, quizartinib in plasma, single 30-mg quizartinib alone, n = 30, read-out: AUCinf (CV%), geometric mean): 8660 ng·h/mL
AUC(0-t) ([1]; human, plasma, oral, 30 mg, quizartinib in plasma, single 30-mg quizartinib alone, n = 30, read-out: AUClast (CV%), geometric mean): 8330 ng·h/mL
Vd/F ([1]; human, plasma, oral, 30 mg): 431 L
AUC(0-inf) ([1]; human, plasma, oral, quizartinib in plasma, lansoprazole 60 mg once daily + single 30-mg quizartinib, n = 31, read-out: AUCinf (CV%), geometric mean): 8260 ng·h/mL
AUC(0-t) ([1]; human, plasma, oral, quizartinib in plasma, lansoprazole 60 mg once daily + single 30-mg quizartinib, n = 32, read-out: AUClast (CV%), geometric mean): 7830 ng·h/mL
AUC(0-inf) ([1]; human, plasma, oral, quizartinib in plasma, lansoprazole + quizartinib, n = 31, read-out: AUCinf, geometric LS mean (ANOVA)): 8260 ng·h/mL
AUC(0-t) ([1]; human, plasma, oral, quizartinib in plasma, lansoprazole + quizartinib, n = 32, read-out: AUClast, geometric LS mean (ANOVA)): 7830 ng·h/mL
half-life ([1]; human, plasma, oral, read-out: Mean T1/2 (SD), arithmetic mean (converted)): 107 h
Tmax ([1]; human, plasma, oral, read-out: Median Tmax (min, max)): 3.5 h
Vd/F ([1]; human, plasma, oral): 479 L
Median Tmax (min, max) ([1]; quizartinib in plasma, healthy subjects, single 30-mg quizartinib tablet alone, fasted, n = 30): 4.0 (2.0, 8.0) h
Cmax, geometric LS mean (ANOVA) ([1]; quizartinib in plasma, quizartinib alone, n = 30): 104.8 ng/mL
Cmax (CV%), geometric mean [1, 8]: 105 (16.3) ng/mL
Mean T1/2 (SD), arithmetic mean [1, 8]: 102.2 (29.0) h
CL/F (CV%), geometric mean ([1]; lansoprazole 60 mg once daily + single 30-mg quizartinib, n = 31): 3.2 L/h and 3.2 (46.4)^b L/h
CL/F (CV%), geometric mean ([1]; single 30-mg quizartinib alone, n = 30): 3.1 L/h and 3.1 (37.4) L/h
Compound: CC(C)(C)c1cc(NC(=O)Nc2ccc(-c3cn4c(n3)sc3cc(OCCN5CCOCC5)ccc34)cc2)no1 [Quizartinib, quizartinib]
Subjects with maximum QTcF value > 480 ms [2]: None
Maximum QTcF change from baseline in most subjects [2, 9]: ≤ 30 ms
Maximum QTcF value in most subjects [2, 9]: ≤ 450 ms
TEAE: Back pain [3, 10]: 2 (3.2) n (%)
TEAE: Constipation [3, 10]: 2 (3.2) n (%)
TEAE: Dermatitis [3, 10]: 1 (1.6) n (%)
TEAE: Diarrhea [3, 10]: 1 (1.6) n (%)
TEAE: Dizziness [3, 10]: 1 (1.6) n (%)
TEAE: Fatigue [3, 10]: 2 (3.2) n (%)
TEAE: Headache [3, 10]: 3 (4.8) n (%)
TEAE: Hypoacusis [3, 10]: 1 (1.6) n (%)
TEAE: Hypoesthesia [3, 10]: 1 (1.6) n (%)
TEAE: Muscle tightness [3, 10]: 2 (3.2) n (%)
TEAE: Musculoskeletal pain [3, 10]: 1 (1.6) n (%)
TEAE: Musculoskeletal stiffness [3, 10]: 1 (1.6) n (%)
TEAE: Nasal congestion [3, 10]: 1 (1.6) n (%)
TEAE: Nausea [3, 10]: 2 (3.2) n (%)
TEAE: Phlebotomy [3, 10]: 1 (1.6) n (%)
TEAE: Sneezing [3, 10]: 1 (1.6) n (%)
TEAE: Throat irritation [3, 10]: 1 (1.6) n (%)
TEAE: Upper respiratory tract infection [3, 10]: 5 (7.9) n (%)
TEAE: Vessel puncture site pain [3, 10]: 1 (1.6) n (%)
Abnormalities in vital signs, hematology, or clinical chemistry [3, 11]: No significant abnormalities
Severe or serious TEAEs [3, 11]: no severe or serious TEAEs
Subjects with TEAEs of mild severity among the 20 subjects who experienced a TEAE [3, 11]: 95%
Subjects with at least one quizartinib-related TEAE (nausea, diarrhea, dizziness, headache, fatigue) [3, 11]: Three
Subjects with at least one treatment-emergent AE (TEAE) following quizartinib treatment on day 5 ([3]; all subjects, quizartinib with or without lansoprazole, N = 63): 31.7%
TEAE: Back pain [3, 12]: 1 (3.3) n (%)
TEAE: Constipation [3, 12]: 1 (3.3) n (%)
TEAE: Dermatitis [3, 12]: 0 n (%)
TEAE: Diarrhea [3, 12]: 1 (3.3) n (%)
TEAE: Dizziness [3, 12]: 0 n (%)
TEAE: Fatigue [3, 12]: 1 (3.3) n (%)
TEAE: Headache [3, 12]: 3 (10.0) n (%)
TEAE: Hypoacusis [3, 12]: 0 n (%)
TEAE: Hypoesthesia [3, 12]: 0 n (%)
TEAE: Muscle tightness [3, 12]: 2 (6.7) n (%)
TEAE: Musculoskeletal pain [3, 12]: 1 (3.3) n (%)
TEAE: Musculoskeletal stiffness [3, 12]: 1 (3.3) n (%)
TEAE: Nasal congestion [3, 12]: 1 (3.3) n (%)
TEAE: Nausea [3, 12]: 1 (3.3) n (%)
TEAE: Phlebotomy [3, 12]: 0 n (%)
TEAE: Sneezing [3, 12]: 1 (3.3) n (%)
TEAE: Throat irritation [3, 12]: 1 (3.3) n (%)
TEAE: Upper respiratory tract infection [3, 12]: 2 (6.7) n (%)
TEAE: Vessel puncture site pain [3, 12]: 0 n (%)
TEAE: Dysmenorrhea ([3]; by treatment group, safety population, after database lock one event was found to be pre-existing): 1 (3.3) n (%)
Subjects with at least one treatment-emergent AE (TEAE) following quizartinib treatment on day 5 ([3]; by treatment group, quizartinib alone n = 30, lansoprazole + quizartinib n = 33): 30.0%
Overall safety and tolerability ([3]; healthy subjects, with or without lansoprazole): generally safe and well tolerated
half-life ([4]; estimated in AML patients, ref data on file, Daiichi Sankyo Inc., Basking Ridge, NJ, USA): 73 h
Time to maximum concentrations ([4]; healthy subjects and patients with AML, range 2–8 h): 4 h

pH dependence of solubility [5]: pH dependent
solubility ([5]; at physiological pH in the intestine): < 0.4 µg/mL
Compound: CC(C)(C)c1cc(NC(=O)Nc2ccc(-c3cn4c(n3)sc3cc(OCCN5CCOCC5)ccc34)cc2)no1 [quizartinib dihydrochloride]

Compound: Cc1c(OCC(F)(F)F)ccnc1C[S+]([O-])c1nc2ccccc2[nH]1 (centres unmarked) [Lansoprazole, lansoprazole]
Duration of inhibitory effect on gastric acid secretion [6]: over 24 h
Elimination half-life [6]: less than 2 h
Mean 24-h intragastric pH ([6]; lansoprazole 30 mg once daily for 5 days, baseline 2.1): 4.9
